Measured values as given in patent US20240325419A1, “PHARMACEUTICAL COMPOSITION FOR RESTORING PHYSIOLOGICAL PROCESSES AND CELLS OF ORGANISM” (priority 2022, published 2024).
“Also recorded” adds a separate entry of the source.

How the values were obtained:
human tumour cell lines = assay: Cytotoxicity and cytomorphology of test substances, conclusions (cell line not given); details: Doxorubicin 0.2 mg/ml; HPBCD 5 mg/ml
[1] = tested on: HT-1080 human fibrosarcoma cell line; assay: Cytotoxicity on the cells culture HT1080; type: cell-based; details: TiO2 or SiO2 600 mcg/ml, cyclodextrin 5000 mcg/ml, Doxorubicin 200 mcg/ml
Protocol: In these studies cells (5×10^4) were seeded in 6-well plates and cultured in RPMI-1640 medium containing 10% fetal bovine serum. The cultures were incubated for 2 hours in CO2 thermostate at 37° C. After the preincubation period the medium was removed, the cells were washed with physiological saline (2×1 ml 0.9% NaCl) and exposed to testing samples applying various concentrations for 60 min. After removing the test compounds fresh RPMI 1640 medium containing 10% FBS was added and the cultures were incubated for further 24 hours at 37° C. in humidified thermostate (5% CO2). At the end of the posttreatment period the medium as supernatants of the cultures, containing released cells was removed and saved for cell counting.

Caenorhabditis elegans = assay: Life duration of Caenorhabditis elegans on NGM plates; type: in vivo
Protocol: ADAM QD/T, TiO2 aqueous nanodispersion used for researches on the animals, was sterile nanodispersion, of pharmaceutical class, in concentration 0.6 mg/ml. • 2. […] SBECD, Sulfobutylated beta-cyclodextrin sodium salt, Budapest, Hungary DEXOLVE® pharma grade (DS 6.5), powder in concentration 0.3 mg/ml. Protocol of researches and step-by-step methodology: • embryos were isolated (synchronization) • larvae of identical phase (L4) were placed on the standard NGM (nematode growth medium) […] plates in the Petri dishes. • all the animals were in the age from first up to ninth day of life and lived in a medium containing the above-listed components, after ninth day they were placed in standard […] without other additions as FUDR. • deaths of the animals were constantly registered as a time function • the curves of life duration were created on the basis of read indications. Composition of NGM plates (all the chemical compounds and reagents of analytical class); NaCl, agar, peptone, 5 mg/ml cholesterol in ethanol, non-autoclaved, 1 M K3PO4 buffer pH 6.0 (108.3 g KH2PO4, 35.6 g K2HPO4, H2O for 1 liter), 1M MgSO4, Petri dishes, peristaltic pump. The results present average of three parallel, independent definitions, research cycles of C. elegans.

| Compound | Cytotoxicity (human tumour cell lines) | Cytotoxicity [1] | Number of living C. elegans (%) (Caenorhabditis elegans; life duration 10 days) | Number of living C. elegans (%) (Caenorhabditis elegans; life duration 13 days) | Number of living C. elegans (%) (Caenorhabditis elegans; life duration 14 days) | Number of living C. elegans (%) (Caenorhabditis elegans; life duration 15 days) | Number of living C. elegans (%) (Caenorhabditis elegans; life duration 18 days) |
| --- | --- | --- | --- | --- | --- | --- | --- |
| COc1cccc2c1C(=O)c1c(O)c3c(c(O)c1C2=O)C[C@@](O)(C(=O)CO)C[C@@H]3O[C@H]1C[C@H](N)[C@H](O)[C@H](C)O1 [Doxorubicin] | moderate cytotoxicity | evident cytotoxicity; also recorded: significant cytotoxicity | – | – | – | – | – |
| Sulfobutylated beta-cyclodextrin sodium salt [SBECD] | – | – | 90% | 41% | 20% | 7% | 0% |
